The values below come from PMC7764601 (Molecules, 2020).

The term LD50 denotes the dose expected to kill half of the subjects tested. As a reminder, the inhibition is the drop in the measured response relative to a control, in per cent.

The structures appear in SMILES notation. Read-outs that look alike come from different tables or passages of the source. Marks after values point to notes of the source that are not given here. Where only a bound is given, the exact number is not on record here.

In series [1] the test system is mice. Details: method as in PMID 11234340, PMID 12484538, PMID 15652370. The conditions noted are these: series 1, cited from earlier work.
Series [2] deals with mice. The conditions noted are these: compounds obtained previously (series 1 and 2); cited from earlier work.
In series [3] the test system is mice. Details: method as in PMID 11234340, PMID 12484538, PMID 15652370. The conditions noted are these: series 1, cited from earlier work. This is another data set of the same source.
The next series in a line: in vivo. Format: in vivo. To be noted: male, albino Swiss, mouse, in vivo, ip; mice, intraperitoneal, mortality after 24 h; confidence limits in parentheses. How it is done:
(§1) The experiments were carried out on male albino Swiss mice (body weight 18–26 g). All of the animals were housed at constant humidity (60%) and temperature (25 °C) and kept on a 12 h light/dark cycle. Animals were fed a standard pellet diet with free access to tap water. All procedures were conducted according to Animal Care and Use Committee guidelines, and approved by the Ethical Committee of Jagiellonian University, Kraków.
(§2) Control and experimental groups consisted of 6–8 animals each. The investigated compounds were administered intraperitoneally as a suspension in 0.5% methylcellulose in a constant volume of 10 mL/kg.

In series [4] the test system is mice. As to the kind of experiment: “Writhing” test in mice (phenylbenzoquinone). In kind it is in vivo. How it is done: as §1, §2
(§3) The statistical significance was calculated using a Student’s t-test. The ED50 values and their confidence limits were calculated according to the method of Litchfield and Wilcoxon.
(§4) Pain reactivity was measured in two tests: “hot plate” test (according to the method of Eddy and Leimbach) and “writhing” test in mice (according to Hendershot and Forsaith).
Then, after 25 min, the irritant (phenylbenzoquinone, 0.02% solution, ethanol-water, 5:95) was also administered intraperitoneally in a constant volume of 0.25 mL. Five min after the application of the irritant,a 10 min long period of observation started, in which the number of writhing episodes was counted.
The analgesic effect of individual doses was expressed in percent:(1) % Analgesic effect=100−∑ of writing incidents in experimental group/∑ of writhing incidents in control group×100
A general note: Writhing tests count abdominal constrictions after an irritant is injected.

Series [5] relates to mice. Put plainly: Spontaneous locomotor activity in mice (photoresistor actometers). In kind it is in vivo. The conditions noted are these: for ED50: confidence limits in parentheses, read-out: ED50 (mg/kg) ± SEM, spontaneous locomotor activity; for Number of impulses ± SEM (30min): i.p. As for the experimental part: as §1, §2
Spontaneous locomotor activity in mice was measured in circular photoresistoractometers (32 cm in diameter). […] Thirty minutes after the injection of the investigated compounds, mice were placed in the actometers for 30 min. Each crossing of the light beam was recorded automatically. The amount of impulses was noted after 30 min.

The test system of series [6] is mice. As to the kind of experiment: “Hot plate” test in mice. In kind it is in vivo. To be noted: for change in vivo at 100 mg/kg / change in vivo at 200 mg/kg / Time of Reaction to Pain Stimulus (s) ± SEM: hot plate; for change in vivo at 100 mg/kg / change in vivo at 200 mg/kg / Time of Reaction to Pain Stimulus (s) ± SEM / analgesic effect in the hot plate test (in words): mice; for analgesic effect in the hot plate test (in words): applied doses (Table 4). How it is done:
as §1, §2, §3, §4
Animals were placed individually on the metal plate, heated to 55 ± 1 °C. The latency time (s) to the pain reaction (licking of the hind paws or jumping) was recorded by a stop-watch. A cutoff time of 45 s was used to prevent tissue damage.
For orientation: Thermal pain tests record how soon the animal reacts.

[7] abbreviates: Mus musculus, ip, dose 25 mg/kg, read-out: Degree of motor inhibition (%).
Setting [8] is: Mus musculus, ip, dose 50 mg/kg, read-out: Degree of motor inhibition (%).
The mark [9] stands for this setting: Mus musculus, ip, 0.5 h, dose 100 mg/kg, read-out: Prolonged Time (%).
The mark [10] stands for this setting: Mus musculus, ip, 0.5 h, dose 200 mg/kg, read-out: Prolonged Time (%).
Setting [11] is: Mus musculus, ip, 0.5 h, read-out: Prolonged Time (%).

As to `COc1nc(C)cc2c1C(=O)N(CCCCN1CCN(c3ccccc3)CC1)C2=O` [Compound 1P], the “Thiopental Anesthesia % Prolong.” value was 140.25% in the series with mice [1] (dose 50 mg/kg) and 242.13% in the series with mice [1] (dose 100 mg/kg). Besides, the “ED50, writhing test” value in the series with mice [2] is recorded as 4.5 mg/kg. Further, the “% Inh. of locomotor activity” value was 67.14% in the series on mice [3] (dose 50 mg/kg) and 86.10% in the series with mice [3] (dose 100 mg/kg).
On to `COc1nc(C)cc2c1C(=O)N(CN1CCOCC1)C2=O` [Compound 1Q], for which the “Thiopental Anesthesia % Prolong.” value in the series on mice [1] (dose 44 mg/kg) was 141.7 ** %. Further, the “ED50, writhing test” value in the series with mice [2] is reported as 13.66 mg/kg. Further, the “% Inh. of locomotor activity” value with mice [3] (dose 44 mg/kg) is 42.65 * %.
`COc1ccccc1N1CCN(CCCCN2C(=O)c3cc(C)nc(OC)c3C2=O)CC1` [Compound 1R]: the “Thiopental Anesthesia % Prolong.” value is recorded as 159.12% in the series with mice [1] (dose 50 mg/kg) and 255.97% with mice [1] (dose 100 mg/kg). Moreover, the “ED50, writhing test” value with mice [2] is 6.8 mg/kg. Also, the “% Inh. of locomotor activity” value in the series on mice [3] (dose 100 mg/kg) is reported as 82.32 ** %.
As for `COc1nc(C)cc2c1C(=O)N(CCCCN1CCOCC1)C2=O` [Compound 8, 4-methoxy-6-methyl-4-(N-morpholino)-butyl-1H-pyrrolo[3,4-c]pyridine-1,3-(2H)-dion], the LD50 at 24 h in “in vivo” is more than 2000 mg/kg. Also, the “Mean no. of writhing ± SEM” value with mice [4] (i.p., dose 12.5 mg/kg) is listed as 19.8 ± 2.1; in the series on mice [4] (i.p., dose 25 mg/kg), 6.2 ± 0.9. The ED50 with mice [5] (Mus musculus, ip) was 34.2 mg/kg. Besides, the inhibition at 5 mg/kg with mice [5] (Mus musculus, ip, dose 5 mg/kg, read-out: Degree of motor inhibition (%)) is 18.1%. In addition, the inhibition at 12.5 mg/kg in the series on mice [5] (Mus musculus, ip, dose 12.5 mg/kg, read-out: Degree of motor inhibition (%)) was determined as 32.8%. For the same molecule, the inhibition at 25 mg/kg with mice [5] (setting [7]) stood at 35.4%. Moreover, in the series with mice [5] (setting [8]), the inhibition at 50 mg/kg was 61.6%. Moreover, the “Number of impulses ± SEM (30min)” value with mice [5] (dose 5 mg/kg) amounted to 387 ± 24; in the series with mice [5] (dose 12.5 mg/kg), 312 ±26; in the series on mice [5] (dose 25 mg/kg) it was 299 ± 59; in the series on mice [5] (dose 50 mg/kg), 178 ± 30. Further, in the series with mice [6] (setting [9]), the change in vivo at 100 mg/kg is 3.87%. For the same molecule, the change in vivo at 200 mg/kg in the series on mice [6] (setting [10]) was 27.5%. Also, the “Time of Reaction to Pain Stimulus (s) ± SEM” value (from here on “Time of Reaction … (s) ± SEM”) turned out to be 10.2 ± 1.8 s in the series on mice [6] (dose 100 mg/kg) and 12.2 ± 1.4 s in the series with mice [6] (dose 200 mg/kg). In the series on mice [6], the “analgesic effect in the hot plate test (in words)” value is “not statistically significant”.
Turning to `CCOc1nc(C)cc2c1C(=O)N(CCN1CCN(c3ccccc3)CC1)C2=O` [Compound 10], in “in vivo”, the 50% lethal dose (LD50) at 24 h was more than 2000 mg/kg. The ED50 was found to be 15.8 ± 0.91 mg/kg with mice [4] (Mus musculus, ip, confidence limits in parentheses, read-out: ED50 (mg/kg) ± SEM, writhing test) and 84 ± 5.1 mg/kg with mice [5] (Mus musculus, ip). Further, the “Mean no. of writhing ± SEM” value in the series with mice [4] (i.p., dose 25 mg/kg) turned out to be 7.9 ± 2.1; in the series with mice [4] (i.p., dose 50 mg/kg), 2.1 ± 0.6; in the series on mice [4] (i.p., dose 100 mg/kg), 0.9 ± 0.1. In addition, the inhibition at 25 mg/kg in the series with mice [5] (setting [7]) stood at 49.2%. The inhibition at 50 mg/kg in the series with mice [5] (setting [8]) is 55.1%. Further, in the series with mice [5] (Mus musculus, ip, dose 100 mg/kg, read-out: Degree of motor inhibition (%)), the inhibition at 100 mg/kg was 6.8%. In addition, the “Number of impulses ± SEM (30min)” value stood at 224 ± 45 in the series on mice [5] (dose 25 mg/kg), 198 ± 54 in the series on mice [5] (dose 50 mg/kg) and 142 ± 29 with mice [5] (dose 100 mg/kg). Further, the change in vivo at 100 mg/kg in the series with mice [6] (setting [9]) turned out to be 6.98%. Also, the change in vivo at 200 mg/kg in the series on mice [6] (setting [10]) amounted to 34.9%. Besides, the “Time of Reaction … (s) ± SEM” value in the series on mice [6] (dose 100 mg/kg) stood at 18.4 ± 1.7 s; with mice [6] (dose 200 mg/kg) it was 23.2 ± 2.6 s. Further, the “analgesic effect in the hot plate test (in words)” value in the series with mice [6] is reported as “not statistically significant”.
For the molecule `CN1CC[C@]23c4c5ccc(O)c4O[C@H]2[C@@H](O)C=C[C@H]3[C@H]1C5` [Morphine, reference compound], the “ED50 (mg/kg) ± SEM, writhing test” value with mice [4] (i.p., confidence limits in parentheses) came to 2.44 mg/kg. For the same molecule, the “Mean no. of writhing ± SEM” value was determined as 16.2 ± 3.51 with mice [4] (i.p., dose 1 mg/kg); 7.5 ± 2.9 in the series with mice [4] (i.p., dose 3 mg/kg); 1.2 ± 0.8 in the series with mice [4] (i.p., dose 10 mg/kg). Also, the change in vivo at 1 mg/kg with mice [6] (setting [11]) was 33.8%. Also, in the series on mice [6] (setting [11]), the change in vivo at 3 mg/kg was 104%. Further, in the series on mice [6] (setting [11]), the change in vivo at 6 mg/kg is 111%. For the same molecule, the ED50 in the series with mice [6] (Mus musculus, read-out: ED50, hot plate test) came out at 2.55 mg/kg. The “Time of Reaction … (s) ± SEM” value with mice [6] (dose 1 mg/kg) is recorded as 19.4 ± 2.1 s; in the series with mice [6] (dose 3 mg/kg) it was 29.6 ± 6 s; in the series on mice [6] (dose 6 mg/kg), 30.6 ± 3.9 s.
